These are literature values, as cited in US6420614B1, “Process for obtaining 3′-epilutein” (Industrial Organica, S.A. DE C.V., priority 2000, dated 2002).

SMILES strings stand for the structures.

The test system of this series is egg yolk. Conditions: relative potency of zeaxanthin stereoisomers; (3R,3′R)-zeaxanthin = 100%.
As to `CC1=C(/C=C/C(C)=C/C=C/C(C)=C/C=C/C=C(C)/C=C/C=C(C)/C=C/C2=C(C)C[C@H](O)CC2(C)C)C(C)(C)C[C@@H](O)C1` (single isomer, unassigned) [(3S, 3′S)-zeaxanthin (enantiomer)], the “potency in pigmenting of egg yolk” value is on record as 86%.

Turning to `CC1=C(/C=C/C(C)=C/C=C/C(C)=C/C=C/C=C(C)/C=C/C=C(C)/C=C/C2=C(C)C[C@@H](O)CC2(C)C)C(C)(C)C[C@H](O)C1` [(3RS, 3′SR)-zeaxanthin (racemic), (3RS, 3′SR)-zeaxanthin], the “potency in pigmenting of egg yolk” value is given as 92%.

Turning to `CC1=C(/C=C/C(C)=C/C=C/C(C)=C/C=C/C=C(C)/C=C/C=C(C)/C=C/C2=C(C)C[C@H](O)CC2(C)C)C(C)(C)C[C@H](O)C1` [(3R, 3′S)-zeaxanthin (meso, II), (3R,3′S)-zeaxanthin], the “potency in pigmenting of egg yolk” value is given as 37%.

As for `CC1=C(/C=C/C(C)=C/C=C/C(C)=C/C=C/C=C(C)/C=C/C=C(C)/C=C/C2=C(C)C[C@@H](O)CC2(C)C)C(C)(C)C[C@H](O)C1` [(3R, 3′R)-zeaxanthin (III), (3R,3′R)-zeaxanthin], the “potency in pigmenting of egg yolk” value was 100%.
